The test system of experiment [1] is retinal neurons (ganglion cells) and inner nuclear layer cells. Description: Effect on rat ocular fundus tissue cytopathy (central retinal artery occlusion/reperfusion). The class given is in vivo. The settings on record: male SD rats, 75 min central retinal artery occlusion, 100 mg/kg i.p. 15 min before occlusion, immediately after reperfusion, then once daily; specimens 5 days after reperfusion. An excerpt: FIG. 1 is a diagrammatic representation of the effect on injury of rat retinal ganglion cells. The ordinate represents the number of ganglion cells. In the diagram, a) denotes a significant difference (p<0.01) from the normal group by Student's t-test; b) denotes a significant difference (p<0.01) from the control group by Student's t-test.
FIG. 2 is a diagrammatic representation of the effect on injury of the rat retinal inner nuclear layer cells. The ordinate represents the number of inner nuclear layer cells. In the diagram, a) denotes a significant difference (p<0.01) from the normal group by Student's t-test; b) denotes a significant difference (p<0.01) from the control group by Student's t-test.
Effect on Rat Ocular Fundus Tissue Cytopathy Method:
Using male SD rats (b. wt. 150 g), the central retinal artery was occluded with an aneurysm clip under anesthesia with 5 w/v % ketamine HCl/2 w/v % xylazine HCl (3:1, 0.5 ml, i.p.) to arrest the blood flow for 75 minutes. In the normal group, the central retinal artery was exposed but ischemia was not introduced. Tissue specimens were prepared 5 days after reperfusion. For use as a tissue specimen, the enucleated eyeball was fixed in 4% formaldehyde and embedded in paraffin in a routine manner. Then, thin sections (3 μm thick) were prepared by transverse slicing at right angles with the retinal surface including the optic disc and stained with hematoxylin-eosin. Under the light microscope, the retinal neurons (ganglion cells) and inner nuclear layer cells were counted per 0.25 mm span of the retinal section at a predetermined distance (1-2 mm) from the optic disc. As the test drug, a parenteral suspention prepared as in Example 3 was administered intraperitoneally in a dose of 100 mg, as Compound 1, per kg body weight 15 minutes before arterial occlusion, immediately after reperfusion, and thereafter once daily (Compound 1 administration group). The control and normal groups were similarly given the vehicle used in Example 3. In the positive control group, Cbz-Val-Phe-H [S.C. Hong et al., Stroke, 25 (3), 663-669, 1994], 100 mg/kg, was similarly administered (MDL administration group).

The test system of a further experiment is calpain. Description: Effect on rat enucleated retina cytopathy under hypoxia (spectrin cleavage, SDS electrophoresis). The class given is cell-based. The settings on record: rat retina incubated under hypoxia in glucose-free RPMI 1640, 3 and 6 hours, 100 μM. Here is the method: FIG. 3(a) and FIG. 3(b) are SDS electrophoretic images showing the cleavage product of endocellular spectrin obtained upon homogenation of retina tissues detected after incubation of rat retina tissues under hypoxia, wherein FIG. 3(a) and FIG. 3(b) show SDS electrophoretic images after incubation for 3 hours and 6 hours, respectively.
Effect on Rat Enucleated Retina Cytopathy Under Hypoxia Method:
The ocular fundus tissue (retina) of male SD rats (b. wt. 150 g) was removed and incubated under hypoxia in RPMI 1640 medium (manufactured by (Gibco) without glucose. The ocular fundus tissue was homogenized 3 and 6 hours later, and the cleavage product of endocellular spectrin was isolated by SDS electrophoresis and detected using homophil prepared by the method of Saido et. al. [The Journal of Biological Chemistry, 268, 25239-25243 (1993)]. As the test compounds, Compound 1 and MDL were dissolved in ethanol to a concentration of 20 mM and added to the culture medium to a concentration of 100 μM (Compound 1 administration group and MDL administration group). As a control, the ocular fundus tissue of male SD rats (b. wt. 150 g) was incubated in the same manner in the presence of oxygen in RPMI 1640 medium containing glucose.

Peptide text beside a SMILES is read from it. * marks the point of attachment. Cbz = O=C(OCc1ccccc1)*

With `CC(C)C[C@@H](C=O)NC(=O)[C@@H](NS(=O)(=O)c1ccc(F)cc1)C(C)C` [Compound 1, N-(4-fluorophenylsulfonyl)-L-valyl-L-leucinal], in experiment [1], the “inhibition of the decrease in ganglion cell count caused by arterial occlusion” value is “significantly inhibited” and the “inhibition of the decrease in inner nuclear layer cell count caused by arterial occlusion” value was “significantly inhibited”. For the same compound, in the experiment with calpain, the “145 kDa band (cleavage product of spectrin)” value is “not detected” and the “150 kDa band due to the digestion of spectrin” value is “somewhat detected”.
Consider `CC(C)[C@H](NC(=O)OCc1ccccc1)C(=O)N[C@H](C=O)Cc1ccccc1` [MDL, Cbz-Val-Phe-H] (Cbz-Val-Phe-aldehyde), for which, in experiment [1], the “inhibition of the decrease in ganglion cell count caused by arterial occlusion” value is given as “slight” and the “inhibition of the decrease in inner nuclear layer cell count caused by arterial occlusion” value is reported as “slight”. Further, in the experiment on calpain, the “145 kDa band (cleavage product of spectrin)” value is “not detected” and the “150 kDa band due to the digestion of spectrin” value is “somewhat detected”.

The values are drawn from US6423691B1, “Pharmaceutical composition for prophylaxis and therapy of diseases associated with ocular fundus tissue cytography” (Senju Pharmaceutical Co., Ltd., priority 1998, dated 2002).
